Values of other authors, collected in patent publication US20080299050A1, “TOPICAL THERAPIES FOR ORAL MUCOSITIS AND OTHER CONDITIONS” (DrugTech Corporation, priority 2006, published 2008).

Legend:
gingival wound = details: by mouth for up to 8 weeks prior to gingival excision
gingiva = details: administered systemically
[1] = very large dose applied topically to a pressure ulcer
[2] = system: human slin fibroblast cultures

SMILES: O=C1N=C([O-])NC1(c1ccccc1)c1ccccc1.[Na+] [phenyloin sodium]
- gingival wound healing (gingival wound): greatly enhanced
- side effect (gingiva): gingival hyperplasia

SMILES: O=C1NC(=O)C(c2ccccc2)(c2ccccc2)N1 [phenyloin, 5,5-diphenyl-2,4-imidazolidinedione]
- systemic absorption of phenyloin [1]: little systemic absorption
- cell proliferation (enhancing effect) ([2]; higher concentration (25 or 50 μg/ml) or longer incubation time (25 h or 48 h)): reduced or reversed
- cell proliferation ([2]; low concentration (5 μg/ml) and short incubation time (3 h)): enhanced
